Assay results from the NIST ThermoML archive (doi:10.1021/acs.jced.7b00195).
Numbers after ± are expanded uncertainties.

Settings: Gas, Burnett expansion method

Work on `CCF` [fluoroethane] yielded a mass density (278.38 K, 201.28 kPa) of 4.281 ± 0.043 kg/m3, a mass density (278.38 K, 432.22 kPa) of 9.679 ± 0.076 kg/m3 and a mass density (278.39 K, 297.17 kPa) of 6.437 ± 0.056 kg/m3. It also gave a mass density (283.26 K, 303.56 kPa) of 6.463 ± 0.055 kg/m3, a mass density (283.26 K, 442.81 kPa) of 9.718 ± 0.076 kg/m3 and a mass density (283.27 K, 205.41 kPa) of 4.298 ± 0.043 kg/m3. For the same compound, the mass density (288.2 K, 209.64 kPa) was 4.316 ± 0.043 kg/m3, the mass density (288.21 K, 309.96 kPa) was 6.489 ± 0.055 kg/m3 and the mass density (288.21 K, 452.92 kPa) was 9.758 ± 0.075 kg/m3. For the same compound, the mass density (293.09 K, 213.69 kPa) was 4.313 ± 0.042 kg/m3, the mass density (293.09 K, 316.32 kPa) was 6.485 ± 0.055 kg/m3 and the mass density (293.1 K, 143.41 kPa) was 2.868 ± 0.035 kg/m3. The mass density (293.1 K, 462.98 kPa) was 9.751 ± 0.075 kg/m3, the mass density (298.65 K, 323.48 kPa) was 6.515 ± 0.055 kg/m3 and the mass density (298.65 K, 682.94 kPa) was 14.731 ± 0.11 kg/m3. It also gave a mass density (298.66 K, 146.61 kPa) of 2.881 ± 0.035 kg/m3, a mass density (298.66 K, 218.72 kPa) of 4.333 ± 0.042 kg/m3 and a mass density (298.66 K, 474.3 kPa) of 9.797 ± 0.076 kg/m3. For the same compound, the mass density (303.31 K, 149.42 kPa) was 2.894 ± 0.034 kg/m3, the mass density (303.31 K, 222.77 kPa) was 4.351 ± 0.042 kg/m3 and the mass density (303.31 K, 329.55 kPa) was 6.543 ± 0.054 kg/m3. The mass density (303.31 K, 697.8 kPa) was 14.795 ± 0.11 kg/m3, the mass density (303.32 K, 483.63 kPa) was 9.838 ± 0.076 kg/m3 and the mass density (308.96 K, 227.65 kPa) was 4.351 ± 0.041 kg/m3. It also gave a mass density (308.96 K, 336.88 kPa) of 6.542 ± 0.054 kg/m3, a mass density (308.97 K, 494.66 kPa) of 9.837 ± 0.075 kg/m3 and a mass density (308.97 K, 715.6 kPa) of 14.793 ± 0.11 kg/m3. The mass density (308.98 K, 152.32 kPa) was 2.893 ± 0.034 kg/m3, the mass density (313.8 K, 155.2 kPa) was 2.907 ± 0.034 kg/m3 and the mass density (313.8 K, 343.12 kPa) was 6.572 ± 0.054 kg/m3. It also gave a mass density (313.8 K, 1036.8 kPa) of 22.346 ± 0.16 kg/m3, a mass density (313.81 K, 231.58 kPa) of 4.371 ± 0.041 kg/m3 and a mass density (313.81 K, 504.31 kPa) of 9.882 ± 0.075 kg/m3. The mass density (313.81 K, 730.5 kPa) was 14.86 ± 0.11 kg/m3, the mass density (318.66 K, 513.87 kPa) was 9.903 ± 0.075 kg/m3 and the mass density (318.67 K, 158.08 kPa) was 2.912 ± 0.033 kg/m3. The mass density (318.67 K, 235.35 kPa) was 4.379 ± 0.041 kg/m3, the mass density (318.67 K, 349.39 kPa) was 6.585 ± 0.054 kg/m3 and the mass density (318.67 K, 745.44 kPa) was 14.89 ± 0.11 kg/m3. The mass density (318.67 K, 1060.9 kPa) was 22.39 ± 0.16 kg/m3, the mass density (323.51 K, 355.59 kPa) was 6.601 ± 0.054 kg/m3 and the mass density (323.51 K, 760.32 kPa) was 14.926 ± 0.11 kg/m3. For the same compound, the mass density (323.51 K, 1084.6 kPa) was 22.444 ± 0.16 kg/m3, the mass density (323.52 K, 160.85 kPa) was 2.919 ± 0.033 kg/m3 and the mass density (323.52 K, 239.62 kPa) was 4.39 ± 0.041 kg/m3. It also gave a mass density (323.52 K, 523.39 kPa) of 9.926 ± 0.075 kg/m3, a mass density (328.42 K, 243.93 kPa) of 4.403 ± 0.04 kg/m3 and a mass density (328.42 K, 532.98 kPa) of 9.955 ± 0.075 kg/m3. It also gave a mass density (328.42 K, 775.13 kPa) of 14.969 ± 0.11 kg/m3, a mass density (328.42 K, 1108.3 kPa) of 22.509 ± 0.16 kg/m3 and a mass density (328.42 K, 1539.5 kPa) of 33.847 ± 0.24 kg/m3. It also gave a mass density (328.43 K, 163.8 kPa) of 2.928 ± 0.033 kg/m3, a mass density (328.43 K, 361.91 kPa) of 6.62 ± 0.054 kg/m3 and a mass density (333.29 K, 541.96 kPa) of 9.995 ± 0.075 kg/m3. The mass density (333.3 K, 248.18 kPa) was 4.42 ± 0.04 kg/m3, the mass density (333.3 K, 368.16 kPa) was 6.647 ± 0.054 kg/m3 and the mass density (333.3 K, 789.86 kPa) was 15.029 ± 0.11 kg/m3. For the same compound, the mass density (333.3 K, 1131.5 kPa) was 22.599 ± 0.16 kg/m3, the mass density (333.31 K, 166.7 kPa) was 2.94 ± 0.033 kg/m3 and the mass density (338.15 K, 252.41 kPa) was 4.426 ± 0.04 kg/m3. The mass density (338.15 K, 374.3 kPa) was 6.655 ± 0.053 kg/m3, the mass density (338.15 K, 551.38 kPa) was 10.008 ± 0.075 kg/m3 and the mass density (338.15 K, 1614.5 kPa) was 34.027 ± 0.24 kg/m3. It also gave a mass density (338.16 K, 169.6 kPa) of 2.943 ± 0.032 kg/m3, a mass density (338.16 K, 804.44 kPa) of 15.048 ± 0.11 kg/m3 and a mass density (338.16 K, 1154.5 kPa) of 22.629 ± 0.16 kg/m3. The mass density (343.01 K, 256.69 kPa) was 4.428 ± 0.04 kg/m3, the mass density (343.01 K, 380.56 kPa) was 6.659 ± 0.053 kg/m3 and the mass density (343.01 K, 818.91 kPa) was 15.056 ± 0.11 kg/m3. The mass density (343.02 K, 560.82 kPa) was 10.013 ± 0.075 kg/m3, the mass density (343.02 K, 1177.4 kPa) was 22.64 ± 0.16 kg/m3 and the mass density (343.02 K, 1651.3 kPa) was 34.043 ± 0.24 kg/m3. It also gave a mass density (343.02 K, 2227.5 kPa) of 51.191 ± 0.36 kg/m3, a mass density (343.03 K, 172.53 kPa) of 2.945 ± 0.032 kg/m3 and a mass density (347.85 K, 175.51 kPa) of 2.953 ± 0.032 kg/m3. The mass density (347.85 K, 570.22 kPa) was 10.041 ± 0.075 kg/m3, the mass density (347.85 K, 833.34 kPa) was 15.099 ± 0.11 kg/m3 and the mass density (347.85 K, 1687.6 kPa) was 34.14 ± 0.24 kg/m3. It also gave a mass density (347.85 K, 2287.3 kPa) of 51.336 ± 0.36 kg/m3, a mass density (347.86 K, 260.96 kPa) of 4.441 ± 0.04 kg/m3 and a mass density (347.86 K, 386.83 kPa) of 6.677 ± 0.053 kg/m3. The mass density (347.86 K, 1200 kPa) was 22.704 ± 0.16 kg/m3, the mass density (352.74 K, 265.25 kPa) was 4.438 ± 0.039 kg/m3 and the mass density (352.74 K, 393.24 kPa) was 6.674 ± 0.053 kg/m3. The mass density (352.74 K, 579.94 kPa) was 10.036 ± 0.075 kg/m3, the mass density (352.74 K, 1724 kPa) was 34.121 ± 0.24 kg/m3 and the mass density (352.74 K, 2347.1 kPa) was 51.308 ± 0.36 kg/m3. The mass density (352.74 K, 3018.7 kPa) was 77.15 ± 0.54 kg/m3, the mass density (352.75 K, 178.77 kPa) was 2.951 ± 0.032 kg/m3 and the mass density (352.75 K, 847.82 kPa) was 15.09 ± 0.11 kg/m3. It also gave a mass density (352.75 K, 1222.3 kPa) of 22.691 ± 0.16 kg/m3, a mass density (358.61 K, 248.43 kPa) of 4.077 ± 0.037 kg/m3 and a mass density (358.61 K, 544.42 kPa) of 9.219 ± 0.069 kg/m3. For the same compound, the mass density (358.61 K, 1159 kPa) was 20.845 ± 0.15 kg/m3, the mass density (358.61 K, 1648.3 kPa) was 31.345 ± 0.22 kg/m3 and the mass density (358.61 K, 2274.6 kPa) was 47.133 ± 0.33 kg/m3. It also gave a mass density (358.62 K, 368.4 kPa) of 6.131 ± 0.049 kg/m3, a mass density (358.62 K, 799.33 kPa) of 13.862 ± 0.1 kg/m3 and a mass density (363.36 K, 252.39 kPa) of 4.076 ± 0.037 kg/m3. For the same compound, the mass density (363.36 K, 553.08 kPa) was 9.217 ± 0.069 kg/m3, the mass density (363.36 K, 2325.7 kPa) was 47.122 ± 0.33 kg/m3 and the mass density (363.36 K, 3082.3 kPa) was 70.859 ± 0.5 kg/m3. It also gave a mass density (363.37 K, 374.25 kPa) of 6.129 ± 0.049 kg/m3, a mass density (363.37 K, 811.8 kPa) of 13.859 ± 0.1 kg/m3 and a mass density (363.37 K, 1178.9 kPa) of 20.84 ± 0.15 kg/m3. The mass density (363.37 K, 1680 kPa) was 31.337 ± 0.22 kg/m3, the mass density (368.26 K, 256.54 kPa) was 4.087 ± 0.037 kg/m3 and the mass density (368.26 K, 380.26 kPa) was 6.145 ± 0.049 kg/m3. The mass density (368.26 K, 561.93 kPa) was 9.24 ± 0.069 kg/m3, the mass density (368.26 K, 825.1 kPa) was 13.895 ± 0.1 kg/m3 and the mass density (368.26 K, 1199.4 kPa) was 20.894 ± 0.15 kg/m3. For the same compound, the mass density (368.26 K, 1712.2 kPa) was 31.418 ± 0.22 kg/m3, the mass density (368.26 K, 2378.2 kPa) was 47.243 ± 0.33 kg/m3 and the mass density (368.27 K, 3165.9 kPa) was 71.038 ± 0.5 kg/m3. It also gave a mass density (373.13 K, 838.52 kPa) of 13.867 ± 0.1 kg/m3, a mass density (373.14 K, 260.73 kPa) of 4.078 ± 0.037 kg/m3 and a mass density (373.14 K, 386.27 kPa) of 6.133 ± 0.049 kg/m3. The mass density (373.14 K, 1219.8 kPa) was 20.851 ± 0.15 kg/m3, the mass density (373.14 K, 1744.1 kPa) was 31.354 ± 0.22 kg/m3 and the mass density (373.14 K, 2430.1 kPa) was 47.146 ± 0.33 kg/m3. For the same compound, the mass density (373.14 K, 3250.9 kPa) was 70.894 ± 0.5 kg/m3, the mass density (373.14 K, 4091.8 kPa) was 106.604 ± 0.75 kg/m3 and the mass density (373.15 K, 570.74 kPa) was 9.221 ± 0.069 kg/m3. It also gave a mass density (378.01 K, 264.55 kPa) of 4.087 ± 0.036 kg/m3, a mass density (378.01 K, 391.92 kPa) of 6.145 ± 0.049 kg/m3 and a mass density (378.01 K, 851.98 kPa) of 13.896 ± 0.1 kg/m3. It also gave a mass density (378.01 K, 1240 kPa) of 20.895 ± 0.15 kg/m3, a mass density (378.01 K, 1776.1 kPa) of 31.42 ± 0.22 kg/m3 and a mass density (378.01 K, 2481.6 kPa) of 47.245 ± 0.33 kg/m3. The mass density (378.01 K, 3335.4 kPa) was 71.042 ± 0.5 kg/m3, the mass density (378.02 K, 579.55 kPa) was 9.241 ± 0.069 kg/m3 and the mass density (378.02 K, 4235.2 kPa) was 106.825 ± 0.75 kg/m3.
